Measurements published in EP4745130A1, “CRYSTAL FORMS OF TUBULIN-SRC DUAL-TARGETING INHIBITOR, PREPARATION METHOD THEREFOR AND USE THEREOF” (Hubei Bio-Pharmaceutical Industrial Technological Institute …, priority 2023, dated 2025).

Legend:
[1] = Solid-state stability (XRPD and HPLC after open storage); format: physicochemical; conditions: for Crystal form: XRPD
Procedure: The purity test, dynamic solubility test, and stability test in the assay were measured using an Agilent 1260 high-performance liquid chromatograph, and the salt formation molar ratio of ions was tested by ion chromatography, and the analytical conditions are shown in Table 19 and Table 20. Table 19 High-performance liquid chromatography test conditions

[2] = Hygroscopicity test by dynamic vapor sorption (DVS); format: physicochemical; conditions: DVS, 25°C, 0%RH to 95%RH
Procedure: The dynamic vapor sorption (DVS) curve was collected on DVS IntrInsic from SMS (surface measurement systems). The relative humidity at 25°C was corrected using the deliquescence points of LiCl, Mg(NO3)2, and KCl. Table 18 DVS test parameters
The percentage change in sample mass was collected under constant temperature at 25°C as humidity varied from 0%RH to 95%RH.

[3] = Suspension competition test between free form crystal forms A and B; format: physicochemical; conditions: in words; at room temperature and 50°C, compared with the free form crystal form B
From the text: Table 24 Suspension competition test results between free form crystal forms A and B

[4] = Dynamic solubility experiment at 37°C (water, SGF, FaSSIF, FeSSIF); conditions: for S: solubility: solid feed 10 mg/mL; for pH: pH value of the filtrate
Procedure: Rotating mixing was carried out at 37°C at a solid feed concentration of 10 mg/mL (calculated as the compound of Formula I). […] After sampling at each time point, the samples were centrifuged (10000 rpm) and filtered (0.45 µm PTFE filter head), and the HPLC concentration and pH value of the filtrate were measured.
100 mg of NaCl and 50 mg of Triton X-100 were weighed into a 50 mL volumetric flask, and purified water was added to complete dissolution. 816 µL of 1 M hydrochloric acid was added thereto, and the pH was adjusted to 1.8 with 1 M hydrochloric acid or 1 M NaOH solution. Purified water was added to make up to volume.
340 mg of anhydrous NaH2PO4 and 620 mg of NaCl were weighed into a 100 mL volumetric flask. Purified water was added to complete dissolution, followed by addition of 55.44 µL of 50% NaOH solution, and the pH was adjusted to 6.5 using 1M HCl or 1M NaOH solution. Purified water was added to make up to volume. 110 mg of SIF powder was then weighed into a 50 mL volumetric flask, added with the above solution to complete dissolution and make up to volume.
0.82 mL of glacial acetic acid and 1.18 g of NaCl were added to a 100 mL volumetric flask. Purified water was added to complete dissolution, followed by addition of 528 µL of 50% NaOH solution, and the pH was adjusted to 5.0 using 1M HCl or 1M NaOH solution. Purified water was added to make up to volume. 560 mg of SIF powder was then weighed into a 50 mL volumetric flask, added with the above solution to complete dissolution and make up to volume.

- Purity (area%) ([1]; 25°C/60%RH/open, 1 week): 96.76 area%
- Relative to initial (%) ([1]; 25°C/60%RH/open, 1 week): 99.9%
- Crystal form ([1]; 25°C/60%RH/open, 1 week): Free form crystal form A
- Purity (area%) ([1]; 40°C/75%RH/open, 1 week): 96.70 area%
- Relative to initial (%) ([1]; 40°C/75%RH/open, 1 week): 99.8%
- Crystal form ([1]; 40°C/75%RH/open, 1 week): Free form crystal form A
- Purity (area%) ([1]; Initial): 96.86 area%
- hygroscopicity [2]: almost non-hygroscopic
- S: solubility ([4]; FaSSIF, 1 hour, 60 min): 0.72 mg/mL
- S: solubility ([4]; FaSSIF, 4 hours, 240 min): 0.70 mg/mL
- S: solubility ([4]; FaSSIF, 24 hours, 1440 min): 0.63 mg/mL
- S: solubility ([4]; FeSSIF, 1 hour, 60 min): 3.46 mg/mL
- S: solubility ([4]; FeSSIF, 4 hours, 240 min): 3.74 mg/mL
- S: solubility ([4]; FeSSIF, 24 hours, 1440 min): 3.46 mg/mL
- S: solubility ([4]; H2O, 1 hour, 60 min): 0.06 mg/mL
- S: solubility ([4]; H2O, 4 hours, 240 min): 0.08 mg/mL
- S: solubility ([4]; H2O, 24 hours, 1440 min): 0.06 mg/mL
- S: solubility ([4]; SGF, 1 hour, 60 min): 6.71 mg/mL
- S: solubility ([4]; SGF, 4 hours, 240 min): 6.77 mg/mL
- S: solubility ([4]; SGF, 24 hours, 1440 min): 6.61 mg/mL
- pH ([4]; FaSSIF, 1 hour): 6.6
- pH ([4]; FaSSIF, 4 hours): 6.6
- pH ([4]; FaSSIF, 24 hours): 6.6
- pH ([4]; FeSSIF, 1 hour): 5.3
- pH ([4]; FeSSIF, 4 hours): 5.4
- pH ([4]; FeSSIF, 24 hours): 5.4
- pH ([4]; H2O, 1 hour): 8.6
- pH ([4]; H2O, 4 hours): 8.6
- pH ([4]; H2O, 24 hours): 8.5
- pH ([4]; SGF, 1 hour): 5.7
- pH ([4]; SGF, 4 hours): 5.8
- pH ([4]; SGF, 24 hours): 5.9
SMILES: Cc1cc(OCCN2C[C@H]3COC[C@H]3C2)ccc1-c1ccc(CC(=O)NCc2ccccc2)nc1 [Free form crystal form A]
- thermodynamic stability [3]: thermodynamically more stable crystal form
